Tests used:
[1] = system: Penicillium expansum strain PE110030, pyrimethanil-resistant; assay: Poison plate assay on glucose agar, strain PE110030; format: cell-based
Method: (§1) • Name of component (I): pyrimethanil • Name of component (II): hexanoic acid (=CH3—(CH2)n—COOH wherein n is 4) • Test setup: to each well of a 24-well microtiter plate, 2 ml of Glucose Agar (GA: 10 g glucose, 1.5 g K2HPO4, 2 g KH2PO4, 1 g (NH4)2SO4, 0.5 g MgSO4 and 12.5 g agar in 1 litre deionised water) is added. The test compounds pyrimethanil as well as an alkane carboxylic acid (II) are dissolved in DMSO at the appropriate concentration and added to the liquid agar in a 5 μl droplet each. The nutrient medium is inoculated with the test fungi by adding 2.5 µl of a spore/mycelium suspension. The microwell plates are then incubated in the dark at 20° C. and 60% relative humidity. The growth of the fungi is evaluated after two weeks, when the growth diameter of untreated controls has reached 15 mm.
(§2) After a suitable incubation period, colony diameters on the agar are measured. Percentage growth (not % effect, see below) is then calculated for each treatment by comparing the colony diameter with the diameter for untreated controls (which is 15 mm).
(§3) The effect of adding an alkane carboxylic acid of formula CH3—(CH2)n—COOH (wherein n is 4 to 7) to restore sensitivity of pyrimethanil-resistant or pyrimethanil-tolerant fungi to pyrimethanil was calculated using the Colby synergy formula (Colby S. R., Weeds (1967), 15(1), 20-22).
(§4) When a is the % growth (not the % activity) still observed under treatment with compound A alone at a given concentration and b is the % growth still observed under treatment with compound B alone at a given concentration, the expected growth exp under treatment with the combination of both compounds at the same concentrations is:
(§5) When the observed growth of the test pathogens under the combination is less than the expected growth, there is synergy.

[2] = system: Penicillium expansum PE110091 (pyrimethanil-tolerant); assay: Treatment of fruit (curative dip, Bio-apple Elstar); format: in vivo; settings: for % effect after 6 days (observed) / % effect after 9 days (observed): apple Elstar, curative
Method: untreated apples or pears (details below), inoculated with fungal pathogens by wounding the fruits with a contaminated pricker on two spots, and incubated at 20° C. and 96% relative humidity.
Curative: fruits are first infected with a pricker and treated by dipping four hours later.
After a suitable incubation period, the diameters of the infected spots are measured with a calliper. The average diameter is calculated for all spots in the same treatment (between 14 and 40 spots per treatment, see below). Percentage effect of the treatment is then calculated by comparing the average spot diameter with the average for untreated controls.
The effect of adding an alkane carboxylic acid of formula CH3—(CH2)n—COOH (wherein n is 4 to 7) to restore sensitivity of pyrimethanil-resistant or pyrimethanil-tolerant fungi to pyrimethanil was calculated using the Limpel synergy formula (Limpel, L. E. et al. (1962) “Weed control by dimethyl tetrachloroterephthalate alone and in certain combinations”, Proceedings of the N. E. Weed Control Conference 16: 48-53). When a is the % effect obtained by compound A alone at a given concentration and b is the % effect obtained by compound B alone at a given concentration, the expected effect e of the combination of both compounds at the same concentrations is:
Pyrimethanil was added to tap water as a 40% commercially available PENBOTEC 400SC formulation to obtain a concentration of 100 ppm pyrimethanil. The alkanoic acid was added to tap water to obtain a 2000 ppm solution, or the alkanoic acid was added to the pyrimethanil composition with a concentration of 2000 ppm.
Fruit: Bio-apple “Elstar”
Pathogen: Penicillium expansum PE110091 (pyrimethanil-tolerant)
Repeats: Two wounds per fruit, 15 fruits per treatment
Evaluations: 17 March (6 days), 20 March (9 days) Average rot diameter untreated: 6 days: 21.3 mm 9 days: 36.0 mm

[3] = system: Penicillium expansum strain PE110048, pyrimethanil-resistant; assay: Poison plate assay on glucose agar, strain PE110048; format: cell-based
Method: as §1, §2, §3, §4, §5

[4] = system: Penicillium expansum strain PE110014, pyrimethanil-resistant; assay: Poison plate assay on glucose agar, strain PE110014; format: cell-based
Method: as §1, §2, §3, §4, §5

[5] = system: Penicillium expansum strain PE110030; assay: Pyrimethanil sensitivity of strain PE110030; format: cell-based; settings: strain PE110030, pyrimethanil-resistant
[6] = system: Penicillium expansum strain PE110014; assay: Pyrimethanil sensitivity of strain PE110014; format: cell-based; settings: strain PE110014, pyrimethanil-resistant
[7] = system: Penicillium expansum PE110101; assay: Pyrimethanil sensitivity of strain PE110101; format: cell-based; settings: strain PE110101, pyrimethanil-sensitive
[8] = system: Penicillium expansum strain PE110048; assay: Pyrimethanil sensitivity of strain PE110048; format: cell-based; settings: strain PE110048, pyrimethanil-resistant
[9] = system: Penicillium expansum PE110091; assay: Pyrimethanil sensitivity of strain PE110091; format: cell-based; settings: strain PE110091, pyrimethanil-tolerant
[10] = hexanoic acid alone at 250, 500 and 750 ppm
[11] = pyrimethanil 10 ppm alone, two weeks
[12] = pyrimethanil 100 ppm alone (PENBOTEC 400SC)

SMILES: CCCCCC(=O)O [hexanoic acid]
- % growth (observed) ([1]; hexanoic acid 250 ppm alone): 100%
- % growth (observed) ([1]; hexanoic acid 500 ppm alone): 100%
- % growth (observed) ([1]; hexanoic acid 750 ppm alone): 100%
- fungicidal effect (in words) [1, 10]: no fungicidal effect
- fungicidal effect (in words) ([2]; PE110091 on apple, hexanoic acid alone at 2000 ppm): little fungicidal effect
- % effect after 6 days (observed) ([2]; hexanoic acid 2000 ppm alone): 15%
- % effect after 9 days (observed) ([2]; hexanoic acid 2000 ppm alone): 6%
- % growth (observed) ([3]; hexanoic acid 250 ppm alone): 100%
- % growth (observed) ([3]; hexanoic acid 500 ppm alone): 100%
- % growth (observed) ([3]; hexanoic acid 750 ppm alone): 100%
- fungicidal effect (in words) [3, 10]: no fungicidal effect
- % growth (observed) ([4]; hexanoic acid 250 ppm alone): 100%
- % growth (observed) ([4]; hexanoic acid 500 ppm alone): 100%
- % growth (observed) ([4]; hexanoic acid 750 ppm alone): 100%
- fungicidal effect (in words) [4, 10]: no fungicidal effect

SMILES: Cc1cc(C)nc(Nc2ccccc2)n1 [pyrimethanil, 4,6-dimethyl-N-phenyl-2-pyrimidinamine]
- EC50 [5]: 16.38 ppm
- EC95 [5]: > 100 ppm
- EC50 [6]: 15.40 ppm
- EC95 [6]: > 100 ppm
- EC50 [7]: 0.29 ppm
- EC95 [7]: 0.88 ppm
- % growth (observed) [1, 11]: 80%
- EC50 [8]: 22.39 ppm
- EC95 [8]: > 100 ppm
- % effect after 6 days (observed) [2, 12]: 19%
- % effect after 9 days (observed) [2, 12]: 12%
- EC50 [9]: 5.01 ppm
- EC95 [9]: 74.99 ppm
- % growth (observed) [3, 11]: 53%
- % growth (observed) [4, 11]: 67%

Source: patent US20190069552A1, “METHOD TO CONTROL PYRIMETHANIL TOLERANT FUNGI” (Janssen Pharmaceutica NV, priority 2016, published 2019)
